Experimental data as given in ChEMBL document CHEMBL3880435, “Compounds and compositions as protein kinase inhibitors” (2013).
Blank lines part the entries; values can stand above or below the compound they belong to.

How the values were obtained:
[1] = molecular target: Serine/threonine-protein kinase B-raf (Homo sapiens, UniProt P15056, V600E); experiment: Inhibition of B-Raf V600E mutant (unknown origin) using biotinylated Mek substrate incubated for 60 mins by amplified luminescence proximity homogeneous assay
[2] = Hepatic extraction ratio in human liver microsomes at 1 uM in presence of NADPH by LC-MS/MS method; format: ADME; conditions: read-out: ERH
[3] = Antitumor activity against human A375 cells xenografted in Nu/Nu mouse assessed as tumor volume level at 3 mg/kg, dosed BID for 14 days commencing on day 19 measured after 14 days post-first dose relative to initial tumor volume; format: functional, A-375
[4] = Antitumor activity against human A375 cells xenografted in Nu/Nu mouse assessed as tumor volume level at 20 mg/kg, dosed BID for 14 days commencing on day 19 measured after 14 days post-first dose relative to initial tumor volume; format: functional, A-375
[5] = Antitumor activity against human A375 cells xenografted in Nu/Nu mouse assessed as tumor volume level at 1 mg/kg, dosed BID for 14 days commencing on day 19 measured after 14 days post-first dose relative to initial tumor volume; format: functional, A-375
[6] = Antitumor activity against human A375 cells xenografted in Nu/Nu mouse assessed as tumor volume level at 10 mg/kg, dosed BID for 14 days commencing on day 19 measured after 14 days post-first dose relative to initial tumor volume; format: functional, A-375

Sequence of Serine/threonine-protein kinase B-raf (P15056 2-766 V600E limits assumed): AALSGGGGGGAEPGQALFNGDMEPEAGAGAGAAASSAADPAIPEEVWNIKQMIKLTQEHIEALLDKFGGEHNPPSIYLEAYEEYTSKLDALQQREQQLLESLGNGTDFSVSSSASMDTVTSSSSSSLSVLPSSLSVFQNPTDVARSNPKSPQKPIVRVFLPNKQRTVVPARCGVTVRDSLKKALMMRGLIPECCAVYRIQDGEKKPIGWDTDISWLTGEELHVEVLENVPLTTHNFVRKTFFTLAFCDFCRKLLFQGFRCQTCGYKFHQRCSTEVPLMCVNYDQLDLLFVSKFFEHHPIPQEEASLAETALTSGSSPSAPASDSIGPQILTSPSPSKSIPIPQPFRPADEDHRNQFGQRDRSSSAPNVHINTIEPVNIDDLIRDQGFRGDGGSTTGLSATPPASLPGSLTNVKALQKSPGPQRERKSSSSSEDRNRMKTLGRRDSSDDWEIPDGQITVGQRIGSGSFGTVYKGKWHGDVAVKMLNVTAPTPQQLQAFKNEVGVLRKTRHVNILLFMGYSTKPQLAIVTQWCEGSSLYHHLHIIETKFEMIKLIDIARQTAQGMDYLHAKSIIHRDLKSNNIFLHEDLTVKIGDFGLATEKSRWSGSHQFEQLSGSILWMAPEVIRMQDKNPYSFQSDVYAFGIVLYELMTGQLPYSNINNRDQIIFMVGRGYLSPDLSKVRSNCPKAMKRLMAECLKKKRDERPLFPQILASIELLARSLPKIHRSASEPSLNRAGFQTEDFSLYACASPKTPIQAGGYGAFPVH

IC50 [1]: 950 pM
SMILES: COC(=O)N[C@@H](C)CNc1nccc(-c2cn(C(C)C)nc2-c2cc(C)cc(NS(C)(=O)=O)c2F)n1

IC50 [1]: 1000 pM
SMILES: COC(=O)N[C@@H](C)CNc1nccc(-c2cn(C(C)C)nc2-c2cc(C)cc(NS(C)(=O)=O)c2Cl)n1

hepatic extraction ratio at 1 µM [2]: < 0.31
SMILES: COC(=O)N[C@@H](C)CNc1nccc(-c2cn(C(C)C)nc2-c2cccc(NS(C)(=O)=O)c2F)n1

SMILES: COC(=O)N[C@@H](C)CNc1nccc(-c2cn(C(C)C)nc2-c2cc(Cl)cc(NS(C)(=O)=O)c2F)n1 [ENCORAFENIB]
Activity [3]: 20%
Activity [4]: <80%
Activity [5]: 20 - 50%
Activity [6]: <80%
